From patent US20130065833A1, “ALKYLATED SP-B PEPTOID COMPOUNDS AND RELATED LUNG SURFACTANT COMPOSITIONS” (Northwestern University, priority 2010, published 2013)

Test: Pulsating bubble surfactometry (PBS), dynamic-mode cycling at 20 cpm
Assay type: physicochemical
Details: 37° C.; for γmax: time point not stated; for % comp (percent SA compression to reach 20 mN m^−1): PBS dynamic-mode, 20 cpm, 100*[(SAmax−SA20)/(SAmax)]
Protocol: The maintenance of good surfactant activity during the dynamic changes in volume or film surface area at the a/l interface was assessed via bubble pulsation in PBS dynamic-mode. This method permits a simplified evaluation of in vitro dynamic film behavior. (Seurynck, S. L., Brown, N. J., Wu, C. W., Germino, K. W., Kohlmeir, E. K., Ingenito, E. P., Glucksberg, M. R., Barron, A. E., and Johnson, M. (2005) J. Appl. Physiol. 99, 624-633.) The γ-surface area (SA) data loops in FIG. 4B for each lipid-peptoid mixture are one representative pulsation cycle at 20 cycles per minute (cpm) after five minutes at 37° C., with bubble expansion in a clockwise loop direction.
The absence of low-γ data in some loops results from the inability of the image analysis system to trace the bubble shape in this regime. The highly compressed state of the film, which enables it to reach low γ, often causes significant bubble shape deformation, eliminating the possibility of tracing the bubble to obtain SA or employing the ellipsoidal Laplace equation to calculate γ. […] Visual, real-time bubble inspection confirmed that significant bubble deformation occurred and that γ reached near-zero in these films.
The lipids DPPC, POPG, and PA were individually dissolved in a chloroform/methanol solution (3/1 [v/v]) to a known concentration (˜2 or 4 mg mL^−1). Single-lipid solutions were then combined by volume at the ratio of DPPC:POPG:PA, 68:22:9 [wt:wt:wt] and to a known total lipid concentration (˜2 mg mL^−1). This well-characterized lipid formulation, the Tanaka Lipids (TL), is considered an adequate mimic of the non-protein (lipid) fraction of LS. The peptides and peptoids were individually dissolved in methanol from a lyophilized powder to a known concentration (1-2 mg mL^−1). For the PBS and LWSB/FM studies, the peptides and peptoids were added to the TL lipid solution at 2.16 mol % (˜10-12 absolute wt %, see Table 1), and the final solution was diluted to ˜1 mg lipid mL^−1. For comparative purposes, the inclusion of peptide/peptoid at 2.16 mol % corresponds to 10 wt % SP-B1-25 relative to the total lipid content (9.1 absolute wt %). Porcine SP-B was dissolved to a known concentration in chloroform/methanol and added to the TL solution at 0.72 mol %, corresponding to roughly 10 wt % of the monomer unit relative to the total lipid content (9.1 absolute wt %). For PBS and LWSB experiments, the standard deviation of the mean (a) was reported.
A commercial pulsating bubble surfactometry (PBS) instrument (General Transco, Largo, FL), modified with a direct, real-time imaging system, which has been previously described and validated in detail, was utilized to obtain both static-mode and dynamic-mode data. Samples were dried to a pellet from chloroform/methanol 3/1 [v/v] using a DNA 120 speedvac (Thermo Electron, Holbrook, N.Y.). The pellet was resuspended in buffer (150 mM NaCl, 10 mM HEPES, 5 mM CaCl2, pH 6.9) to 1.0 mg lipid mL^−1, with a known final volume of 70 μL. Samples were mixed with a pipette 20 times, sonicated with a Fisher Model 60 probe sonicator for two 15-second spurts, and then mixed again 20 times to form a dispersed suspension. Samples were then loaded into a small plastic sample chamber (General Transco) using a modified leak-free methodology. […]

| Substance | γmax (PBS dynamic-mode in a TL film) | % comp (percent SA compression to reach 20 mN m^−1) | γmin (PBS dynamic-mode in a TL film) |
| --- | --- | --- | --- |
| Noct2-Nspe6-NLys-Nspe2-NLys2-Nspe4-NLys-Nspe2 [peptoid 3] | ~35 mN m^−1 | 12% | – |
| Nspe8-NLys*-Nspe2-NLys2-Nspe4-NLys-Nspe2 [peptoid 1] | 46 mN m^−1 | ~26% | near-zero |
